# Experimental data reported in ChEMBL document CHEMBL4321792, “Discovery of 4-Methylquinazoline Based PI3K Inhibitors for the Potential Treatment of Idiopathic Pulmonary Fibrosis” (J Med Chem, 2019).
# The source made the active and inactive calls. The calls are words filed in the database; no cut-off is given here.
# What was measured:
# [1] = Volume of distribution at steady state in ICR mouse at 0.5 mg/kg, iv by LC-MS/SM analysis; type: ADME, organism-based; settings: in vivo, read-out: Vdss
# [2] = Toxicity in po dosed C57BL/6 mouse administered as single dose via gavage measured up to 7 days; type: organism-based; settings: in vivo
# [3] = Oral bioavailability in ICR mouse at 5 mg/kg by LC-MS/SM analysis; type: ADME, organism-based; settings: in vivo
# Mus musculus [4] = experiment: Antifibrotic activity in bleomycin-induced C57BL/6 mouse model of pulmonary fibrosis assessed as reduction in inspiratory capacity at 1 mg/kg, po administered once daily for 18 days starting from 10 days post-bleomycin challenge and measured post last dose; type: functional, organism-based
# [5] = Clearance in ICR mouse at 0.5 mg/kg, iv by LC-MS/SM analysis; type: ADME, organism-based; settings: in vivo
# [6] = Dose normalized AUC in ICR mouse at 5 mg/kg, po by LC-MS/SM analysis; type: ADME, organism-based; settings: in vivo
# Mus musculus [7] = experiment: (§1) Antifibrotic activity in bleomycin-induced C57BL/6 mouse model of pulmonary fibrosis assessed as reduction in lung fibronectin level at 1 mg/kg, po administered once daily for 18 days starting from 10 days post-bleomycin challenge and measured post last dose by Western blot analysis; type: functional, organism-based
# [8] = biological target: Phosphatidylinositol 4,5-bisphosphate 3-kinase catalytic subunit alpha isoform (Homo sapiens) (UniProt P42336); experiment: Binding affinity to wild-type human partial length PIK3CA (R108 to N1068 residues) expressed in mammalian expression system assessed as residual binding level at 1 uM by kinomescan assay relative to control
# Mus musculus [9] = organism: Mus musculus; experiment: Inhibition of class 1 PI3K in mouse Mlg2908 cells assessed as reduction in p70S6K phosphorylation measured after 3 hrs by Western blot analysis; type: cell-based
# [10] = Apparent permeability across apical to basolateral side in human Caco2 cells measured after 90 mins by LC-MS/MS analysis; settings: Caco-2
# Mus musculus [11] = organism: Mus musculus; experiment: Inhibition of class 1 PI3K in mouse Mlg2908 cells assessed as reduction in AKT phosphorylation at T308 residue measured after 3 hrs by Western blot analysis; type: cell-based
# Mus musculus [12] = experiment: Antifibrotic activity in bleomycin-induced C57BL/6 mouse model of pulmonary fibrosis assessed as reduction in lung index at 1 mg/kg, po administered once daily for 18 days starting from 10 days post-bleomycin challenge and measured post last dose; type: functional, organism-based
# Mus musculus [13] = experiment: Antifibrotic activity in bleomycin-induced C57BL/6 mouse model of pulmonary fibrosis assessed as reduction in respiratory system elastance at 1 mg/kg, po administered once daily for 18 days starting from 10 days post-bleomycin challenge and measured post last dose; type: functional, organism-based
# PI3K p110 beta/p85 alpha = PI3K p110 beta/p85 alpha (Homo sapiens, UniProt P42338); experiment: Inhibition of recombinant human N-terminal FLAG-tagged full-length p110beta/human p85alpha expressed in Sf9 insect cells using PIP2 as substrate by ADP-glo assay
# Mus musculus [14] = experiment: (§2) Antifibrotic activity in bleomycin-induced C57BL/6 mouse model of pulmonary fibrosis assessed as reduction in lung damage at 1 mg/kg, po administered once daily for 18 days starting from 10 days post-bleomycin challenge and measured post last dose by H and E staining-based histopathological analysis; type: functional, organism-based
# [15] = Half life in ICR mouse at 0.5 mg/kg, iv by LC-MS/SM analysis; type: ADME, organism-based; settings: in vivo
# [16] = Half life in ICR mouse at 5 mg/kg, po by LC-MS/SM analysis; type: ADME, organism-based; settings: in vivo
# [17] = biological target: PI3-kinase p110-alpha/p85-alpha (Homo sapiens, UniProt P42336); experiment: Inhibition of recombinant human N-terminal FLAG-tagged full-length p110alpha/human p85alpha expressed in Sf9 insect cells using PIP2 as substrate by kinase-glo assay
# [18] = biological target: T1, Phosphatidylinositol 4,5-bisphosphate 3-kinase catalytic subunit gamma isoform (Homo sapiens, UniProt P48736); experiment: Binding affinity to wild-type human partial length PIK3CG (S144 to A1102 residues) expressed in mammalian expression system assessed as residual binding level at 1 uM by kinomescan assay relative to control
# Mus musculus [19] = experiment: as §1, with “alpha-SMA” for “fibronectin”, “immunostaining-based histopathological” for “Western blot”; type: functional, organism-based
# Mus musculus [20] = experiment: Antifibrotic activity in bleomycin-induced C57BL/6 mouse model of pulmonary fibrosis assessed as reduction in respiratory system compliance at 1 mg/kg, po administered once daily for 18 days starting from 10 days post-bleomycin challenge and measured post last dose; type: functional, organism-based
# [21] = Antifibrotic activity against mouse Mlg2908 cells assessed as reduction in cell viability measured after 72 hrs by MTT assay; type: functional, cell-based
# [22] = Toxicity in po dosed C57BL/6 mouse administered once daily via gavage for 7 days measured post-last dose; type: organism-based; settings: in vivo
# [23] = AUC (0 to infinity) in ICR mouse at 5 mg/kg, po by LC-MS/SM analysis; type: ADME, organism-based; design: dose 5 mg/kg, route oral, time infinity; settings: in vivo
# Mus musculus [24] = organism: Mus musculus; experiment: Inhibition of class 1 PI3K in mouse Mlg2908 cells assessed as reduction in AKT phosphorylation at S473 residue measured after 3 hrs by Western blot analysis; type: cell-based
# Mus musculus [25] = organism: Mus musculus; experiment: Inhibition of class 1 PI3K in mouse Mlg2908 cells assessed as reduction in S6RP phosphorylation measured after 3 hrs by Western blot analysis; type: cell-based
# [26] = AUC (0 to infinity) in ICR mouse at 0.5 mg/kg, iv by LC-MS/SM analysis; type: ADME, organism-based; design: dose 0.5 mg/kg, time infinity, route intravenous; settings: in vivo
# Mus musculus [27] = experiment: Antifibrotic activity in bleomycin-induced C57BL/6 mouse model of pulmonary fibrosis assessed as reduction in lung hydroxyproline level at 1 mg/kg, po administered once daily for 18 days starting from 10 days post-bleomycin challenge and measured post last dose; type: functional, organism-based
# [28] = Apparent permeability across basolateral to apical side in human Caco2 cells measured after 90 mins by LC-MS/MS analysis; settings: Caco-2
# [29] = Cmax in ICR mouse at 5 mg/kg, po by LC-MS/SM analysis; type: ADME, organism-based; design: dose 5 mg/kg, route oral; settings: in vivo
# [30] = biological target: T1, Phosphatidylinositol 4,5-bisphosphate 3-kinase catalytic subunit gamma isoform; experiment: Inhibition of recombinant human N-terminal His-tagged full-length p120gamma expressed in Sf9 insect cells using PIP2 as substrate by ADP-glo assay
# Mus musculus [31] = experiment: as §2, with “collagen fiber deposition” for “lung damage”, “Masson” for “H and E”; type: functional, organism-based
# [32] = biological target: PI3-kinase p110-delta/p85-alpha (Homo sapiens, UniProt O00329); experiment: Inhibition of recombinant human N-terminal GST-tagged full-length p110delta/human p85alpha expressed in Sf9 insect cells using PIP2 as substrate by ADP-glo assay
# [33] = Therapeutic index, ratio of MTD in po dosed C57BL/6 mouse to compound effect for antifibrotic activity in bleomycin-induced C57BL/6 mouse model of pulmonary fibrosis; type: toxicity, organism-based; settings: in vivo, read-out: TI
# Mus musculus [34] = experiment: Antifibrotic activity in bleomycin-induced C57BL/6 mouse model of pulmonary fibrosis assessed as reduction in respiratory system resistance at 1 mg/kg, po administered once daily for 18 days starting from 10 days post-bleomycin challenge and measured post last dose; type: functional, organism-based
# [35] = biological target: Phosphatidylinositol 4-phosphate 3-kinase C2 domain-containing subunit beta (Homo sapiens) (UniProt O00750); experiment: Binding affinity to wild-type human partial length PIK3C2B (M1 to L1634 residues) expressed in mammalian expression system assessed as residual binding level at 1 uM by kinomescan assay relative to control
# Chain of Phosphatidylinositol 4,5-bisphosphate 3-kinase catalytic subunit alpha isoform (Homo sapiens) (P42336 whole entry, the tested form may be a part, canonical isoform): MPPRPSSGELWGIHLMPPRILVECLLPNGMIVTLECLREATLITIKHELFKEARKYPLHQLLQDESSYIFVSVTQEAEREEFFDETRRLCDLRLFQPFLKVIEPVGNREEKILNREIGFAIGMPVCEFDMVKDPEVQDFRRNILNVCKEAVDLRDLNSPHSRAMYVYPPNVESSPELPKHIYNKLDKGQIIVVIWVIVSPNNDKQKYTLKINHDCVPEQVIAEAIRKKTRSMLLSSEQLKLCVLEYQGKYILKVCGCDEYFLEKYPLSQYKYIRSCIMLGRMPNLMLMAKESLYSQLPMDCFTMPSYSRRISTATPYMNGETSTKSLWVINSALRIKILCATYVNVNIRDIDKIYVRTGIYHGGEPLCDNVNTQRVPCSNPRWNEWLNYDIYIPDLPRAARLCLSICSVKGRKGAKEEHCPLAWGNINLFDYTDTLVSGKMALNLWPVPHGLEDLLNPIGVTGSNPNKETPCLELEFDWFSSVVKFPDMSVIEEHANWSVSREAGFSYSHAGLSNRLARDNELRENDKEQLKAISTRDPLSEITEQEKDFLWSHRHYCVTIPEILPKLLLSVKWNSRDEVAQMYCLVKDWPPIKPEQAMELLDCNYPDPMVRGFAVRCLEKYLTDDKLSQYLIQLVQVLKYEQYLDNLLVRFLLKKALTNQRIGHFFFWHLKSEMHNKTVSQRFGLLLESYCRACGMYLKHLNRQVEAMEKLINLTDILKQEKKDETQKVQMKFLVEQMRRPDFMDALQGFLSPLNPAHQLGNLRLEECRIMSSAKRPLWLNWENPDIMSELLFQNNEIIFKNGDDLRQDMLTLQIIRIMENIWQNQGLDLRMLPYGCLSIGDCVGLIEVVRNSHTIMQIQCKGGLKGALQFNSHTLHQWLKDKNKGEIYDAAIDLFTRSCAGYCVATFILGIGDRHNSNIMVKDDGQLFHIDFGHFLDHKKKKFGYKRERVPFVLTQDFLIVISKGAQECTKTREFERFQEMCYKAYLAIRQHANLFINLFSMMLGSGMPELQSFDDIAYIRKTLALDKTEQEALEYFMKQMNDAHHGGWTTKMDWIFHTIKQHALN
# Chain of PI3-kinase p110-delta/p85-alpha (P27986 whole entry): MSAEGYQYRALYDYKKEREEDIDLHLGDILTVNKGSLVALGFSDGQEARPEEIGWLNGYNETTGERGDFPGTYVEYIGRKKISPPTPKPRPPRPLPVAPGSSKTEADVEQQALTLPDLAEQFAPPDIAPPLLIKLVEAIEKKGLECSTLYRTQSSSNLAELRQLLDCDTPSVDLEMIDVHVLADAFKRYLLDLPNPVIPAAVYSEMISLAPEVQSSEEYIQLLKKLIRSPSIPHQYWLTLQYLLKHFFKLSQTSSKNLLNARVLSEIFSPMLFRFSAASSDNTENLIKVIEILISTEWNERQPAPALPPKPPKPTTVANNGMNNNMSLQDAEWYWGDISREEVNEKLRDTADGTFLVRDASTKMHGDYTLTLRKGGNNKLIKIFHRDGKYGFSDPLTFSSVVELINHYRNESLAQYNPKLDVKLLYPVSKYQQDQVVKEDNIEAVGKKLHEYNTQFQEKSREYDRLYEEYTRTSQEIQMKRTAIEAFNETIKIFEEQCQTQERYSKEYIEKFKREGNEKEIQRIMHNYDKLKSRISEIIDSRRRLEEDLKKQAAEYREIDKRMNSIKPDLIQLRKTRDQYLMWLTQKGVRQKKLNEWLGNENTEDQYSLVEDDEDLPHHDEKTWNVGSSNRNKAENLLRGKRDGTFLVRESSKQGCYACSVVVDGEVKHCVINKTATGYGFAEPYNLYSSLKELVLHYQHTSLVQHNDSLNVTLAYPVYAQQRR
# Chain of PI3-kinase p110-delta/p85-alpha (O00329 whole entry): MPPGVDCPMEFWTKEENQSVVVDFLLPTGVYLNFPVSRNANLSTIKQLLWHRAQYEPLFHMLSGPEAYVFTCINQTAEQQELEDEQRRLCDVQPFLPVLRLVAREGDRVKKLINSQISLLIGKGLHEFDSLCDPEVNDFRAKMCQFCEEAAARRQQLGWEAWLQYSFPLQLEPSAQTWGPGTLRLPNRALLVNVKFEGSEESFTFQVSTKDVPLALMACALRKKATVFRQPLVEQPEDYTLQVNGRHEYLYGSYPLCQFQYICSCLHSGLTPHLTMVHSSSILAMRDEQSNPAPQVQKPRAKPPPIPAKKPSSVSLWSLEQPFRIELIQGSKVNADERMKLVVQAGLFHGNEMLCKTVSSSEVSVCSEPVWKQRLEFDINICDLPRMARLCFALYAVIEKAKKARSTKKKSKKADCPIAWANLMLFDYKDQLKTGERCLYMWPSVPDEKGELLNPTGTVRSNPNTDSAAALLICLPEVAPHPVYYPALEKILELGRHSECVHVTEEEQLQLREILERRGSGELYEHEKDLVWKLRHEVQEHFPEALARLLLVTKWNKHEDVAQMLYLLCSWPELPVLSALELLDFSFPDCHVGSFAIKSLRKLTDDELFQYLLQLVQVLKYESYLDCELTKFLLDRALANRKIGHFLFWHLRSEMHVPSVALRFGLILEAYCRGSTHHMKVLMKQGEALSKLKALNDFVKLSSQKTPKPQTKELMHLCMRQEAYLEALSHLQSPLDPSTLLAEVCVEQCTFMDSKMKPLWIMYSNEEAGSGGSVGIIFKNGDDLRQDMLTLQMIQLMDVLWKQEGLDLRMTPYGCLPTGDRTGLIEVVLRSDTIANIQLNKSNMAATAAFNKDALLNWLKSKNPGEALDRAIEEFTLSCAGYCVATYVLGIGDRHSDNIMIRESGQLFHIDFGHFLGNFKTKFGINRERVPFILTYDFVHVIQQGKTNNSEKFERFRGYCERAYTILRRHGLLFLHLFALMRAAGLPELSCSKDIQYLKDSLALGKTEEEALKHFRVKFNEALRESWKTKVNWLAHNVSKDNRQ
# Chain of PI3K p110 beta/p85 alpha (P27986 whole entry): as the sequence (P27986 whole entry) above
# Chain of PI3K p110 beta/p85 alpha (P42338 whole entry): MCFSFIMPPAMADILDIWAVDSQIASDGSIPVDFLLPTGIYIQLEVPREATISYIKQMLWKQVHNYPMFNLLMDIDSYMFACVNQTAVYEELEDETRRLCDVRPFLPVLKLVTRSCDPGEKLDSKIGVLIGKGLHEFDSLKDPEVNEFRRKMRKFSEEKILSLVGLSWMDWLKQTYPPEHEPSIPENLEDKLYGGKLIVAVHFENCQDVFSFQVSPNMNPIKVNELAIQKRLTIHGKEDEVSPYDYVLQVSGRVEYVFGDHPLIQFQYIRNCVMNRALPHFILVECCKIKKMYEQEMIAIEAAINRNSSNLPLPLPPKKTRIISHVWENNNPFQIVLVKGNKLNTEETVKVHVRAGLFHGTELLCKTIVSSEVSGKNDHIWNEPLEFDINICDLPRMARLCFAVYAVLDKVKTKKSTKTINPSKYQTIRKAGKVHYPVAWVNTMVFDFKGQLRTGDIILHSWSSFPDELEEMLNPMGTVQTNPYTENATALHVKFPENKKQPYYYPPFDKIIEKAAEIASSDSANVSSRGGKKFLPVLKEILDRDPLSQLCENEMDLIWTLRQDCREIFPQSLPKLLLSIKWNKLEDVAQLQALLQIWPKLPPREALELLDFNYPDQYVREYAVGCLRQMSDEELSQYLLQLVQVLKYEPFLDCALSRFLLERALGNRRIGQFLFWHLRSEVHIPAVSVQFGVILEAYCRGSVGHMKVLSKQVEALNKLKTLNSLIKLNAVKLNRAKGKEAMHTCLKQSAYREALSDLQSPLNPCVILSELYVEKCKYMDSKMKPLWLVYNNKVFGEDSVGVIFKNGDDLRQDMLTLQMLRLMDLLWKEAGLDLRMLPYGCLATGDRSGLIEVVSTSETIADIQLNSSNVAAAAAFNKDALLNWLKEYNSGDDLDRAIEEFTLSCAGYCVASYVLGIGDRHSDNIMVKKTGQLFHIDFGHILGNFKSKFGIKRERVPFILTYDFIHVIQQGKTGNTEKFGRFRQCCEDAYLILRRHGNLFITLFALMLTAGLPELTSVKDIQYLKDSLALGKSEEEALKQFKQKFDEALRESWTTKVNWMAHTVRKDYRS
# Chain of PI3-kinase p110-alpha/p85-alpha (P27986 whole entry, the tested form may be a part, canonical isoform): as the sequence (P27986 whole entry) above
# Chain of PI3-kinase p110-alpha/p85-alpha (P42336 whole entry, the tested form may be a part, canonical isoform): as the sequence (P42336 whole entry, the tested form may be a part, canonical isoform) above
smiles,measurement,setting,value
COc1ncc(-c2cc(OCC3(C)COC3)c3ncnc(C)c3c2)cc1NS(=O)(=O)c1ccc(F)cc1F,Vd,[1],0.733 L/kg
same,MTD at 168 h,[2],> 30 mg/kg
same,bioavailability,[3],53.1%
same,Activity,Mus musculus [4],Active
same,clearance,[5],12.8 mL/min/kg
same,AUC/dose,[6],734 ng·h/mL per mg/kg
same,Activity,Mus musculus [7],Active
same,Activity,[8],0%
same,inhibition,Mus musculus [9],Dose-dependent effect
same,Papp A→B at 1.5 h,[10],46 ×10⁻⁶ cm/s
same,inhibition,Mus musculus [11],Dose-dependent effect
same,Activity,Mus musculus [12],Active
same,Activity,Mus musculus [13],Active
same,IC50,PI3K p110 beta/p85 alpha,0.7 nM
same,Activity,Mus musculus [14],Active
same,half-life,[15],0.66 h
same,half-life,[16],4.98 h
same,IC50,[17],0.87 nM
same,Activity,[18],0%
same,Activity,Mus musculus [19],Active
same,Activity,Mus musculus [20],Active
same,IC50,[21],5 nM
same,MTD at 168 h,[22],> 10 mg/kg
same,AUC(0-inf),[23],3670 ng·h/mL
same,inhibition,Mus musculus [24],Dose-dependent effect
same,inhibition,Mus musculus [25],Dose-dependent effect
same,AUC(0-inf),[26],651 ng·h/mL
same,Activity,Mus musculus [27],Active
same,Papp B→A at 1.5 h,[28],36 ×10⁻⁶ cm/s
same,Cmax,[29],1220 ng/mL
same,IC50,[30],1.6 nM
same,Activity,Mus musculus [31],Active
same,IC50,[32],1.1 nM
same,selectivity ratio,[33],> 10
same,Activity,Mus musculus [34],Active
same,Activity,[35],0%
